This is an account of results in patent US20030134859A1 (SANKYO COMPANY, LIMITED, priority 2000, published 2003).

Structures are written as SMILES. Where a name gives a salt, the structure may show the parent alone.

The test system of one assay is Rat white adipocytes. Description: Stimulation of differentiation of the adipocytes (Oil Red O). The settings on record: 100 nM test compound; 5 days; Oil Red O ABS550; control = 100%, blank = 0%; Table 7. The format is cell-based. As to the method: Rat white adipocytes contained in the white adipocyte culture kit, which was purchased from HOKUDO, were used. Mediums for proliferation and for differentiation-inducing, which were contained in the white adipocyte culture kit purchased from HOKUDO, were used.
Immediately after arrival of the purchased cells, all medium for transportation was discarded and replaced with 5 ml of proliferation medium (/25 cm^2-flask) and the cells were cultured for one day. Then, a cell suspension was prepared with proliferation medium so as to be 83,000 cells/mL, and the suspension was plated into a type I 96-well collagen-coated microplate (SUMITOMO BAKELITE CO., ltd.) so as to be 5,000 cells/well (60 μL/well). For the blank, the proliferation medium without the cells was plated into the well (blank well) of each plate.
Further, 1) in the group treated with the test compound, 3 μL/well of a solution in which the test compound (100 μM) was dissolved in DMSO solution and diluted with differentiation-inducing medium by 20 times (final concentration of the test compound: 100 nM, final concentration of DMSO: 0.1% (v/v)) were added to the well where the cells were plated. 2) In the control group, 3 μL/well of DMSO solution that was diluted with differentiation-inducing medium by 20 times (final concentration of DMSO: 0.1% (v/v)) were added to the well where the cells were plated. Further, 3) in the blank group, 3 μL/well of DMSO solution that was diluted with differentiation-inducing medium by 20 times (final concentration: 0.1% (v/v)) were added to the blank well.
After culturing for 5 days, all differentiation-inducing medium was discarded and replaced with 60 μL of 10% (v/v) of formaldehyde solution (for fixation) in each well and the cells were kept stationary for 20 min at room temperature. After this the fixative solution was discarded and replaced with 60 μL of 0.2% (v/v) Triton X (Sigma-Aldrich Japan K. K.) solution in each well and kept stationary for 5 min at the room temperature. Then all Triton X solution was discarded and replaced with 60 μL of 60% (v/v) isopropanol solution containing dissolved Oil Red 0 (Sigma-Aldrich Japan K. K.) so as to be 0.3%, which was adipose tissue staining solution, and the well was left stationary for 10 min at room temperature. After the adipose tissue staining solution was discarded, the well was washed twice with 60 μL of 60% (v/v) isopropanol solution. Then, 100 μL of the DMSO were added to each well and stirred for 5 min at room temperature. The absorbance was measured at 550 nm (ABS550) with a multi-plate reader (LabsSystems), and the stained amount by Oil Red 0 was determined. The measured level at ABS550 in the control group was defined as 100%, while the level at ABS550 in the blank group was defined as 0%. The differentiation rate (%) of the adipocytes treated with the test compound was calculated.
For `NC(=O)N1CCN(c2ccc(NC(=O)c3cc([N+](=O)[O-])ccc3Cl)cc2)CC1` [Example 264, N-[4-[(4-Aminocarbonyl)piperazin-1-yl]phenyl]-(2-chloro-5-nitrophenyl)carboxamide], the “Rate of Differentiation (%)” value is listed as 111.5%.

The same assay, now with this note: Rattus norvegicus, Adipocyte, 120 h, 100 nM test compound; 5 days; Oil Red O ABS550; control = 100%, blank = 0%; Table 7; read-out: Rate of Differentiation (%).
Consider `CCNc1ccc(NC(=O)c2cc([N+](=O)[O-])ccc2Cl)cc1` [Example 115, N-(4-Ethylaminophenyl)-(2-chloro-5-nitrophenyl)carboxamide mono-hydrochloride], for which the activity at 0.1 µM is 147%.
Take `CCN(CC)c1ccc(NC(=O)c2cc([N+](=O)[O-])ccc2Cl)c(C)c1` [Example 131, N-[4-(Diethylamino)-2-methylphenyl]-(2-chloro-5-nitrophenyl)carboxamide]: the activity at 0.1 µM was found to be 132%.
On the same count and under the same terms, as for `O=C(Nc1ccc(N2CCNCC2)cc1)c1cc([N+](=O)[O-])ccc1Cl` [Example 133, N-[4-(Piperazin-1-yl)phenyl]-(2-chloro-5-nitrophenyl)carboxamide], the figure is 141%; as for `CCCCCCNc1ccc(NC(=O)c2cc([N+](=O)[O-])ccc2Cl)cc1` [Example 137, N-(4-n-Hexylaminophenyl)-(2-chloro-5-nitrophenyl)carboxamide], 150%; as for `CCOC(=O)Cc1ccc(NC(=O)c2cc([N+](=O)[O-])ccc2Cl)cc1` [Example 168, Ethyl [4-(2-chloro-5-nitrobenzoylamino)phenyl]acetate], 140%.
Same read-out and setting: as for `CCN(CC)c1ccc(NC(=O)c2cc([N+](=O)[O-])ccc2Cl)cc1` [Example 172, N-(4-Diethylaminophenyl)-(2-chloro-5-nitrophenyl)carboxamide], the figure is 120%; as for `Nc1ccc2nc(NC(=O)c3cc([N+](=O)[O-])ccc3Cl)sc2c1` [Example 261, N-(6-Aminobenzothiazol-2-yl]-(2-chloro-5-nitrophenyl)carboxamide], 129%; as for `CS(=O)(=O)Nc1ccc(-c2csc(NC(=O)c3cc([N+](=O)[O-])ccc3Cl)n2)cc1` [Example 262, N-[4-(4-Methanesulfonylaminophenyl)thiazol-2-yl]-(2-chloro-5-nitrophenyl)carboxamide], 167%.
Turning to `CC(=O)Nc1ccc(-c2csc(NC(=O)c3cc([N+](=O)[O-])ccc3Cl)n2)cc1` [Example 263, N-[4-(4-Acetylaminophenyl)thiazol-2-yl]-(2-chloro-5—nitrophenyl)carboxamide], the activity at 0.1 µM was 154%.
Same read-out and setting: as for `CC(=O)Nc1cccc(-c2csc(NC(=O)c3cc([N+](=O)[O-])ccc3Cl)n2)c1` [Example 277, N-[4-(3-Acetylaminophenyl)thiazol-2-yl]-(2-chloro-5-nitrophenyl)carboxamide], the figure is 123%.
Still for that read-out and setting: as for `CC(=O)Nc1ccc2nc(NC(=O)c3cc([N+](=O)[O-])ccc3Cl)sc2c1` [Example 280, N-(6-Acetylaminobenzothiazol-2-yl)-(2-chloro-5-nitrophenyl)carboxamide], the figure is 190%; as for `NC(=O)Nc1ccc2nc(NC(=O)c3cc([N+](=O)[O-])ccc3Cl)sc2c1` [Example 281, N-(6-Aminocarbonylaminobenzothiazol-2-yl)-(2-chloro-5-nitrophenyl)carboxamide], 200%.
